From US20160166679A1, “METHOD OF TREATMENT USING FOLATE CONJUGATES AND TYROSINE KINASE INHIBITORS” (Purdue Research Foundation, priority 2014, published 2016) come the findings set out here.

Each structure is given as a SMILES string.

In one experiment the test system is Renca tumors. As to the kind of experiment: Sunitinib/folate-FITC combination therapy in Renca tumor-bearing mice. It counts as in vivo, mouse (Balb/c). The settings on record: FIG. 2.
Another experiment deals with L1210A tumors. As to the kind of experiment: Tyrosine kinase inhibitor/folate-FITC combination therapy in L1210A tumor-bearing mice. As to conditions: for tumor volume plot: position of the line at the longest duration (PBS control topmost): FIG. 16; for tumor volume plot: position of the line at the longest duration (PBS control second line from the bottom): FIG. 4. The experiment is classed as in vivo, mouse (DBA/2). The method, then: The effect of the combination therapy strategy of Example 1 was evaluated on an alternative tumor type. The […] lymphocytic leukemia cell line was selected due to its high FR expression levels and its ability to grow in immune competent mice. Female DBA/2 mice (purchased from Harlan Laboratories in Indianapolis, Ind.) were used in this model. Mice were injected subcutaneously with 1×10^6 cells suspended in PBS on the left flank. […] Doses of 500 nmols/Kg of folate-FITC in phosphate buffered saline (PBS) by intraperitoneal injection were used in the folate-FITC alone treatment and the combination treatment.
All treatment groups were terminated when tumors in the PBS control group reached 1500 mm^3 and tumors and spleens were harvested for analysis. The excised tumors were digested using a collagenase cocktail and single cell suspensions were stained for the presence of FR, macrophages, MDSC, and T cells and analyzed by flow cytometry. The intra-tumoral vasculature content in mice treated with PBS, folate-FITC alone, sunitinib alone, or a combination of folate-FITC and sunitinib was imaged, as shown in FIG. 6. […] Portions of each tumor were also cryopreserved for sectioning and immunohistochemistry staining. Harvested spleens were also processed into single cell suspensions and analyzed for immune cell content. The percentage of CD4+ and CD8+ cytotoxic T cell in spleens of L1210A tumor-bearing mice treated with PBS, folate-FITC alone, sunitinib alone, or a combination of folate-FITC and sunitinib was determined, as shown in FIG. 5.
A second RTK inhibitor, axitinib, was studied in combination with folate-FITC on one of the tumor models. The combination therapy was tested in the L1210A lymphoma model following the experimental methods detailed in Example 2, using an axitinib concentration of 15 mg/Kg administered daily by oral gavage in place of sunitinib. The groups of mice were treated with PBS, folate-FITC alone (500 nmols/Kg of folate-FITC in phosphate buffered saline), axitinib alone, or a combination of folate-FITC and axitinib. Average weights of tumors and spleens of L1210A tumor-bearing mice are shown in FIGS. 17 and 18, respectively.

Another experiment has as its system M109 tumors. Briefly: Sunitinib/folate-FITC combination therapy in the M109 lung cancer model. The settings on record: M109 tumor-bearing mice; FIG. 11. It counts as in vivo, mouse (Balb/c). The method, then: Solid M109 lung tumors were established on the shoulders of KLH-FITC immunized Balb/c mice (5-6 weeks old from Harlan Laboratories, Indianapolis, Ind.) by injecting them subcutaneously with 1×10^6 of syngeneic M109 cells suspended in media containing 1% female Balb/c serum. The mice were treated according to the same dosing schedule described in Examples 1 and 2. The groups of mice were treated with PBS, folate-FITC alone (500 nmols/Kg of folate-FITC in phosphate buffered saline), sunitinib alone, or a combination of folate-FITC (500 nmols/Kg of folate-FITC in phosphate buffered saline) and sunitinib. Following completion of the study and termination of treatment, the treated animals were sacrificed and tumors and spleens were harvested for analysis as described in Example 2.

Description for Renca tumors: In order to test the effect of combining Sunitinib with folate-targeted immunotherapy on tumor regression in a clinically representative model, the combination therapy was evaluated in Renca tumors, a mouse syngeneic kidney cancer cell line. Renca cells were maintained in a folate deficient cell culture medium and were selected for high folate receptor (FR) expression via multiple steps of cell sorting before being used in therapeutic studies. […] In turn, folate-FITC was used as a folate-hapten conjugate in the therapeutic studies. Female Balb/c mice aged 5-6 weeks were purchased from Harlan Laboratories in Indianapolis, Ind. After allowing one week for the mice to acclimate to their environment, they were vaccinated with 35 ug KLH-FITC in 50 ug GPI-0100 as adjuvant. […]
Several days before the third immunization, each mouse was injected subcutaneously on the left flank with 1×10^6 Renca cells in serum free medium. […] Treatment was initiated when tumors measured 50 mm^3. […] Tumor sizes were measured using digital calipers on alternating days, and tumor volumes were calculated using the equation ½ (L×W^2).
Once it was determined that a study needed to be suspended due to tumor size, all animals in the treatment groups were euthanized within 1-2 days and their tumors and spleens harvested for freezing and analysis by flow cytometry. […]

For `Nc1nc2ncc(CNc3ccc(C(=O)NC(CCC(=O)NCCNC(=S)Nc4ccc(-c5c6ccc(=O)cc-6oc6cc(O)ccc56)c(C(=O)O)c4)C(=O)O)cc3)nc2c(=O)[nH]1` (stereo not drawn) [folate-FITC], the “tumor volume plot: position of the line at the longest duration (PBS control topmost)” value (shortened to “tumor volume plot … (PBS control topmost)”) is given as “second topmost line” with Renca tumors, “second topmost line” in the experiment with L1210A tumors (axitinib study) and “second line from the bottom” in the experiment on M109 tumors. Also, the “average weights of spleens” value with L1210A tumors (axitinib study, FIG. 18) is on record as “swelling of the spleens”; in the experiment on L1210A tumors (sunitinib study, FIG. 9), “swelling of the spleens”. In the experiment with L1210A tumors (sunitinib study), the “tumor volume plot: position of the line at the longest duration (PBS control second line from the bottom)” value was “topmost line”.

Consider `CCN(CC)CCNC(=O)c1c(C)[nH]c(/C=C2\C(=O)Nc3ccc(F)cc32)c1C` [sunitinib], for which the “tumor volume plot … (PBS control topmost)” value with Renca tumors is given as “second line from the bottom”; with M109 tumors, “second topmost line”. For the same compound, the “tumor volume plot: position of the line at the longest duration (PBS control second line from the bottom)” value in the experiment on L1210A tumors (sunitinib study) was “second topmost line”. Moreover, in the experiment on L1210A tumors (sunitinib study, FIG. 9), the “average weights of spleens” value was “swelling of the spleens”.

Turning to `CNC(=O)c1ccccc1Sc1ccc2c(/C=C/c3ccccn3)n[nH]c2c1` [axitinib], the “tumor volume plot … (PBS control topmost)” value in the experiment with L1210A tumors (axitinib study) was “second line from the bottom”. Also, the “average weights of spleens” value in the experiment on L1210A tumors (axitinib study, FIG. 18) was “swelling of the spleens”.
